# Assay results published in article PMC11359809, “Probing the molecular basis for signal transduction through the Zinc-Activated Channel (ZAC)” (Biochemical pharmacology, 2021).
# Where a chain is given by its changes, count along the chain named.
# Legend:
# [1] = system: ZAC^L9′X mutants (L9′A, L9′V, L9′I, L9′T); test: TEVC in oocytes, all four L9′X mutants (collective statement); format: cell-based, human; details: TC 100 μM; 1 mM Zn^2+; range over all four mutants
# Protocol: (§1) The recordings were performed at room temperature.
# (§2) Analysis of the data from the TEVC recordings were performed using Clampfit software version 10.5 (Molecular Devices, Crawley, UK) and GraphPad Prism version 7.0c (GraphPad Software, La Jolla, CA). Unless otherwise stated, the inward currents induced by agonists in oocytes were normalized to the maximal response elicited by a specific agonist (agonist Imax) on each oocyte. Concentration-response and concentration-inhibition curves were fitted in GraphPad Prism by nonlinear regression using the equation for sigmoidal dose-response with variable slope. Each data point represents the mean ± S.E.M. value of recordings performed on at least five oocytes in total from at least two different batches. For the data where statistical analysis was performed, a one-way ANOVA was used. The null hypothesis was rejected at P < 0.05, and the differences between the means were analyzed by Tukey’s multiple comparisons test.
# Fig. 8. Functional importance of the Leu9′ residue in ZAC. […] B. Resting membrane potentials (left) and leak currents (right) recorded from oocytes expressing WT ZAC, ZAC^L9′A, ZAC^L9′T, ZAC^L9′V and ZAC^L9′I. Data are given as mean ± S.E.M. values (n = 40–60). C. […]
# [2] = target: T1, ZAC^L9′T (Homo sapiens, UniProt Q401N2, A152T/L270T); test: TEVC in oocytes, ZAC L9′T mutant; format: cell-based; details: TC 100 μM; outward currents compared to WT ZAC and ZAC^L9′A
# T1 construct: expressed in transfected cells; host or cells: Xenopus oocytes (cRNA injection, pUNIV vector)
# T1 sequence (Q401N2 26-412 A152T/L270T): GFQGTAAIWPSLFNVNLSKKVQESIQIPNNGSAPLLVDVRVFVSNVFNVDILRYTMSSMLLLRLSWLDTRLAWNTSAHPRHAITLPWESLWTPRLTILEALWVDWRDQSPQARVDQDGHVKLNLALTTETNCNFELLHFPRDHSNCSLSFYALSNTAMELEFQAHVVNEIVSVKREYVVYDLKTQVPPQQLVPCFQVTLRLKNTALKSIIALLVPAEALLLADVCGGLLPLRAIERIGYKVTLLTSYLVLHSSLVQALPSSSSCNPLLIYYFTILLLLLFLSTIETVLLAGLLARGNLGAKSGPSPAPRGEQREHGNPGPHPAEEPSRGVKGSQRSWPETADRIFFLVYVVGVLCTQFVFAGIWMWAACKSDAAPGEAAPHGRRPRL
# Protocol: as §1, §2
# [3] = target: T2, ZAC^L9′V (Homo sapiens, UniProt Q401N2, A152T/L270V); test: TEVC in oocytes, ZAC L9′V mutant; format: cell-based; details: TC 100 μM; outward currents compared to WT ZAC and ZAC^L9′A
# T2 construct: expressed in transfected cells; host or cells: Xenopus oocytes (cRNA injection, pUNIV vector)
# T2 sequence (Q401N2 26-412 A152T/L270V): T1 sequence (Q401N2 26-412 A152T/L270T) with T245V
# Protocol: as §1, §2
# [4] = target: T3, ZAC^L9′A (Homo sapiens, UniProt Q401N2, A152T/L270A); test: TEVC in oocytes, ZAC L9′A mutant; format: cell-based; details: TC 100 μM
# T3 construct: expressed in transfected cells; host or cells: Xenopus oocytes injected with cRNA (pUNIV vector)
# T3 sequence (Q401N2 26-412 A152T/L270A): T1 sequence (Q401N2 26-412 A152T/L270T) with T245A
# Protocol: as §1, §2
# [5] = target: T4, WT ZAC (Homo sapiens, UniProt Q401N2, A152T); test: TEVC in Xenopus oocytes expressing WT ZAC; format: cell-based; details: TC 100 μM
# T4 construct: expressed in transfected cells; host or cells: Xenopus oocytes injected with cRNA (pUNIV vector)
# T4 sequence (Q401N2 26-412 A152T): T1 sequence (Q401N2 26-412 A152T/L270T) with T245L
# Protocol: as §1, §2
# [6] = target: T5, ZAC^L9′I (Homo sapiens, UniProt Q401N2, A152T/L270I); test: TEVC in oocytes, ZAC L9′I mutant; format: cell-based; details: TC 100 μM; outward currents compared to WT ZAC and ZAC^L9′A
# T5 construct: expressed in transfected cells; host or cells: Xenopus oocytes (cRNA injection, pUNIV vector)
# T5 sequence (Q401N2 26-412 A152T/L270I): T1 sequence (Q401N2 26-412 A152T/L270T) with T245I
# Protocol: as §1, §2
compound,measurement,setting,value
"COc1cc2c3cc1Oc1cc(ccc1O)C[C@@H]1c4c(cc(OC)c(O)c4Oc4ccc(cc4)C[C@@H]3N(C)CC2)CC[N+]1(C)C [TC, tubocurarine]",I100 μM TC/(IZn2+ max + I100 μM TC) ratio (degree of spontaneous activity),[1],34–40%
same,"I100 μM TC (antagonist-evoked current, spontaneous activity)",[2],substantially higher amplitudes
same,"I100 μM TC (antagonist-evoked current, spontaneous activity)",[3],substantially higher amplitudes
same,"I100 μM TC (antagonist-evoked current, spontaneous activity)",[4],small but significant outward currents
same,"I100 μM TC (antagonist-evoked current, spontaneous activity)",[5],small but significant outward currents
same,"I100 μM TC (antagonist-evoked current, spontaneous activity)",[6],substantially higher amplitudes
